In patent US9957271B2, “Substituted bicyclic aza-heterocycles and analogues as sirtuin modulators” (GlaxoSmithKline, LLC, priority 2012, dated 2018):

Molecular target: T1, SIRT1 (Homo sapiens, UniProt Q96EB6)
T1 sequence (Q96EB6 1-747): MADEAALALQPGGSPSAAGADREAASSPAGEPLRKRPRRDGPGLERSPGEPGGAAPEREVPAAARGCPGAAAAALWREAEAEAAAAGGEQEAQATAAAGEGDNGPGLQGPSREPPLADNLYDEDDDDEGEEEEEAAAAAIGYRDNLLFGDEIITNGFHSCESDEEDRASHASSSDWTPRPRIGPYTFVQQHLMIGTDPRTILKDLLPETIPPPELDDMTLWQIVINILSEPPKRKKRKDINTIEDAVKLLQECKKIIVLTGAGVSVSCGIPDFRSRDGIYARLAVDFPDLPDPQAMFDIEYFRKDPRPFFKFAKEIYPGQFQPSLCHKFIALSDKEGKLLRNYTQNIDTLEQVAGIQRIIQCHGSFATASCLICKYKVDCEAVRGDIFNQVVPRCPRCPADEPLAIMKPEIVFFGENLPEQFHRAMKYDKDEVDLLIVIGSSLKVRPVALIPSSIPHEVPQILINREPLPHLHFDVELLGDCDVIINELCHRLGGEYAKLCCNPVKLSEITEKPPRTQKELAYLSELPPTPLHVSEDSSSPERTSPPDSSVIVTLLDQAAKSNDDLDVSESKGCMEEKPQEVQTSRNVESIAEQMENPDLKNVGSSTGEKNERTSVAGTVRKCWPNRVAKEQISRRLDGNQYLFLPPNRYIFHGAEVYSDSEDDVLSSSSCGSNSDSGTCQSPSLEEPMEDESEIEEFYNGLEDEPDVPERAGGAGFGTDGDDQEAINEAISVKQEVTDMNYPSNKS
Assay: TAMRA based mass spectrometry assay of SIRT1 activity
Format: biochemical
Settings: TAMRA peptide substrate; for TAMRA EC1.5 (μM): concentration of test compound giving 150% activation of SIRT1; for Emax: percent maximum fold activation of SIRT1, read-out: TAMRA % Fold Act
Excerpt: Mass spectrometry based assays were used to identify modulators of SIRT1 activity. The TAMRA based assay utilized a peptide having 20 amino acid residues as follows: Ac-EE-K(biotin)-[…](Ac)NleSTEG-K(5TMR)-EE-NH2 (SEQ ID NO: 1), wherein K(Ac) is an acetylated lysine residue and Nle is a norleucine. The peptide was labeled with the fluorophore 5TMR (excitation 540 nm/emission 580 nm) at the C-terminus. The sequence of the peptide substrate was based on p53 with several modifications. In addition, the methionine residue naturally present in the sequence was replaced with the norleucine because the methionine may be susceptible to oxidation during synthesis and purification. The Trp based assay utilized a peptide having an amino acid residues as follows: Ac-R-H-K-K(Ac)-W-NH2 (SEQ ID NO: 2).
The TAMRA based mass spectrometry assay was conducted as follows: 0.5 μM peptide substrate and 120 μM βNAD^+ was incubated with 10 nM SIRT1 for 25 minutes at 25° C. in a reaction buffer (50 mM Tris-acetate pH 8, 137 mM NaCl, 2.7 mM KCl, 1 mM MgCl2, 5 mM DTT, 0.05% BSA). The SIRT1 protein was obtained by cloning the SirT1 gene into a T7-promoter containing vector, which was then transformed and expressed in BL21(DE3) bacterial cells. Test compound was added at varying concentrations to this reaction mixture and the resulting reactions were monitored. After the 25 minute incubation with SIRT1, 10 μL of 10% formic acid was added to stop the reaction. The resulting reactions were sealed and frozen for later mass spec analysis. Determination of the amount of deacetylated substrate peptide formed (or, alternatively, the amount of O-acetyl-ADP-ribose (OAADPR) generated) by the sirtuin-mediated NAD-dependent deacetylation reaction allowed for the precise measurement of relative SIRT1 activity in the presence of varying concentrations of the test compound versus control reactions lacking the test compound.
A control for inhibition of sirtuin activity was conducted by adding 1 μL of 500 mM nicotinamide as a negative control at the start of the reaction (e.g., permits determination of maximum sirtuin inhibition). A control for activation of sirtuin activity was conducted using 10 nM of sirtuin protein, with 1 μL of DMSO in place of compound, to determine the amount of deacetylation of the substrate at a given time point within the linear range of the assay. This time point was the same as that used for test compounds and, within the linear range, the endpoint represents a change in velocity.
For the above assay, SIRT1 protein was expressed and purified as follows. The SirT1 gene was cloned into a T7-promoter containing vector and transformed into BL21(DE3). The protein was expressed by induction with 1 mM IPTG as an N-terminal His-tag fusion protein at 18° C. overnight and harvested at 30,000×g. Cells were lysed with lysozyme in lysis buffer (50 mM Tris-HCl, 2 mM Tris[2-carboxyethyl]phosphine (TCEP), 10 μM ZnCl2, 200 mM NaCl) and further treated with sonication for […] for complete lysis. The protein was purified over a Ni-NTA column (Amersham) and fractions containing pure protein were pooled, concentrated and run over a sizing column (Sephadex S200 26/60 global). The peak containing soluble protein was collected and run on an Ion-exchange column (MonoQ). Gradient elution (200 mM-500 mM NaCl) yielded pure protein. This protein was concentrated and dialyzed against dialysis buffer (20 mM Tris-HCl, 2 mM TCEP) overnight. The protein was aliquoted and frozen at −80° C. until further use.

| Structure (SMILES) | TAMRA EC1.5 (μM) | Emax [%] |
| --- | --- | --- |
| O=C(Nc1cccc(N2CCOCC2)n1)c1nnc2ccc(-c3ccccc3C(F)(F)F)nn12 [Compound 67] | A (EC1.5<1 μM) | ≥ 350 |
| Cc1nc2ccc(-c3ccccc3C(F)F)nn2c1C(=O)Nc1ccnc(N2CCOCC2)c1 [Compound 72] | A (EC1.5<1 μM) | ≥ 350 |
| O=C(Nc1cc(OCC(O)CO)ccn1)c1cnc2ccc(-c3ccccc3C(F)(F)F)nn12 (stereo not drawn) [Compound 75, N-(4-(2,3-dihydroxypropoxy)pyridin-2-yl)-6-(2-(trifluoromethyl)phenyl)imidazo[1,2-b]pyridazine-3-carboxamide] | B (EC1.5 1-25 μM) | ≥ 350 |
| Cc1cc(OCC(O)CO)nc(NC(=O)c2cnc3ccc(-c4ccccc4C(F)(F)F)nn23)n1 (stereo not drawn) [Compound 76] | B (EC1.5 1-25 μM) | ≥ 350 |
| O=C(Nc1cccnn1)c1cnc2ccc(-c3ccccc3C(F)(F)F)nn12 [Compound 79] | B (EC1.5 1-25 μM) | ≥ 350 |
| O=C(Nc1cnc2ccc(-c3ccccc3C(F)(F)F)nn12)c1cccc(CN2CCOCC2)n1 [Compound 81] | A (EC1.5<1 μM) | ≥ 350 |
| O=C(Nc1cnc2ccc(-c3ccccc3C(F)(F)F)nn12)c1cccc(N2CCOCC2)n1 [Compound 82] | A (EC1.5<1 μM) | ≥ 350 |
| O=C(Nc1cnc2ccc(-c3ccccc3C(F)(F)F)nn12)c1ccncc1 [Compound 87] | C (EC1.5>25 μM) | < 350 |
| O=C(Nc1ccnc(OCC(O)CO)c1)c1cnc2ccc(-c3ccccc3C(F)(F)F)nn12 (stereo not drawn) [Compound 89] | A (EC1.5<1 μM) | ≥ 350 |
| O=C(Nc1cnc2ccc(-c3ccccc3C(F)(F)F)nn12)c1ccncn1 [Compound 90] | A (EC1.5<1 μM) | ≥ 350 |
| Cn1ccnc1C(=O)Nc1cnc2ccc(-c3ccccc3C(F)(F)F)nn12 [Compound 91] | B (EC1.5 1-25 μM) | ≥ 350 |
| Cc1cncc(NC(=O)c2cnc3ccc(-c4ccccc4C(F)(F)F)nn23)c1 [Compound 97] | B (EC1.5 1-25 μM) | ≥ 350 |
| Cc1cc(NC(=O)c2cnc3ccc(-c4ccccc4C(F)(F)F)nn23)cc(C)n1 [Compound 99] | A (EC1.5<1 μM) | ≥ 350 |
| O=C(Nc1cncnc1)c1cnc2ccc(-c3ccccc3C(F)(F)F)nn12 [Compound 106] | B (EC1.5 1-25 μM) | < 350 |
| O=C(Nc1ncc(F)cc1F)c1cnc2ccc(-c3ccccc3C(F)(F)F)nn12 [Compound 111] | B (EC1.5 1-25 μM) | < 350 |
| O=C(Nc1ccccn1)c1cnc2ccc(-c3ccccc3Cl)nn12 [Compound 117] | B (EC1.5 1-25 μM) | < 350 |
| O=C(Nc1cccnc1)c1cnc2ccc(-c3ccccc3Cl)nn12 [Compound 118] | B (EC1.5 1-25 μM) | < 350 |
| O=C(Nc1cccc(CN2CCOCC2)n1)c1cnc2ccc(-c3ccc(F)c(F)c3F)nn12 [Compound 127] | B (EC1.5 1-25 μM) | < 350 |
| O=C(Nc1ccccn1)c1cnc2ccc(-c3ccc(F)c(F)c3F)nn12 [Compound 129] | C (EC1.5>25 μM) | < 350 |
| O=C(Nc1ccnc(N2CCC2)c1)c1cnc2ccc(-c3ccc(F)c(F)c3F)nn12 [Compound 132] | C (EC1.5>25 μM) | < 350 |
| O=C(Nc1cccc(CN2CCOCC2)n1)c1cnc2ccc(-c3ccccc3F)nn12 [Compound 135] | A (EC1.5<1 μM) | ≥ 350 |

The remaining lines, values ahead:

| TAMRA EC1.5 (μM) | Emax [%] | Structure (SMILES) |
| --- | --- | --- |
| C (EC1.5>25 μM) | < 350 | Cc1ncccc1-c1ccc2ncc(C(=O)Nc3ccnc(N4CCC4)c3)n2n1 [Compound 63] |
| A (EC1.5<1 μM) | < 350 | Cc1nc(C)c(-c2ccc3ncc(C(=O)Nc4cccc(N5CCOCC5)n4)n3n2)s1 [Compound 65] |
| A (EC1.5<1 μM) | ≥ 350 | O=C(Nc1cccc(N2CCCC2)n1)c1nnc2ccc(-c3ccccc3C(F)(F)F)nn12 [Compound 66] |
| A (EC1.5<1 μM) | ≥ 350 | Cc1nc2ccc(-c3ccccc3C(F)(F)F)nn2c1C(=O)Nc1cccc(N2CCCC2)n1 [Compound 70] |
| A (EC1.5<1 μM) | < 350 | O=C(Nc1cccc(N2CCC2)n1)c1nnc2ccc(-c3ccccc3C(F)(F)F)nn12 [Compound 73, N-(6-(azetidin-1-yl)pyridin-2-yl)-6-(2-(trifluoromethyl)phenyl)-[1,2,4]-triazolo[4,3-b]pyridazine-3-carboxamide] |
| A (EC1.5<1 μM) | ≥ 350 | O=C(Nc1cnc2ccc(-c3ccccc3C(F)(F)F)nn12)c1ccccn1 [Compound 85] |
| A (EC1.5<1 μM) | ≥ 350 | O=C(Nc1cnc2ccc(-c3ccccc3C(F)(F)F)nn12)c1cnccn1 [Compound 88] |
| B (EC1.5 1-25 μM) | < 350 | O=C(Nc1ccncc1)c1cnc2ccc(-c3ccccc3Cl)nn12 [Compound 94] |
| A (EC1.5<1 μM) | ≥ 350 | O=C(Nc1ccnc(N2CCC2)c1)c1cnc2ccc(-c3ccccc3Cl)nn12 [Compound 96] |
| A (EC1.5<1 μM) | ≥ 350 | O=C(Nc1ccncc1F)c1cnc2ccc(-c3ccccc3C(F)(F)F)nn12 [Compound 100] |
| A (EC1.5<1 μM) | ≥ 350 | COc1cccc(NC(=O)c2cnc3ccc(-c4ccccc4C(F)(F)F)nn23)n1 [Compound 103] |
| B (EC1.5 1-25 μM) | < 350 | O=C(Nc1cccnc1)c1cnc2ccc(-c3ccccc3C(F)(F)F)nn12 [Compound 108] |
| A (EC1.5<1 μM) | ≥ 350 | Cc1cnc(NC(=O)c2cnc3ccc(-c4ccccc4C(F)(F)F)nn23)s1 [Compound 109] |
| B (EC1.5 1-25 μM) | < 350 | O=C(Nc1ncco1)c1cnc2ccc(-c3ccccc3C(F)(F)F)nn12 [Compound 114] |
| C (EC1.5>25 μM) | < 350 | Cn1nccc1NC(=O)c1cnc2ccc(-c3ccccc3C(F)(F)F)nn12 [Compound 115] |
| A (EC1.5<1 μM) | ≥ 350 | O=C(Nc1cnc2ccc(-c3ccccc3C(F)(F)F)nn12)c1ncccn1 [Compound 121] |
| A (EC1.5<1 μM) | ≥ 350 | Cc1cnc(C(=O)Nc2cnc3ccc(-c4ccccc4C(F)(F)F)nn23)s1 [Compound 123] |
| A (EC1.5<1 μM) | ≥ 350 | O=C(Nc1cnc2ccc(-c3ccccc3C(F)(F)F)nn12)c1ccnc(N2CCCC2)c1 [Compound 124] |
